Laboratory results taken from patent US20250127807A1, “TREATMENT OF VAGINAL DYSBIOTIC CONDITIONS WITH ASSOCIATED ELEVATED VAGINAL CALPROTECTIN” (priority 2022, published 2025).
Values belong to the compound of their own block, whether it stands above or below them.

Legend:
[1] = Modeling of Mn and Zn levels in vaginal fluid delivered from slow release Z2 formulation; set-up: species or system women
Protocol: Six women each received 3 doses of formulation Z2 separated by 48 hours. Vaginal fluid swabs were collected at t=0, 2, 4, 8, 12, 18, 24, 30, 36, and 42 hours post dose and vaginal fluid concentrations of lactoferrin and mannitol were determined. Average concentrations for the combined 18 dose administrations were obtained based on calculation of Area Under Curve for the locally estimated scatterplot smoothing (Loess) profile of lactoferrin and mannitol concentrations assuming 6 mL volume of distribution.

[2] = set-up: species or system women; conditions: female, human, in vivo
Protocol: Elevated levels of calprotectin in BV and in L iners-dominated vaginal microbiomes sequester manganese and zinc, preventing growth of L crispatus its maintenance of a healthy vaginal microbiome. […] Six women each received 3 doses of formulation Z2 separated by 48 hours. Vaginal fluid swabs were collected at t=0, 2, 4, 8, 12, 18, 24, 30, 36, and 42 hours post dose and vaginal fluid concentrations of lactoferrin and mannitol were determined. Average concentrations for the combined 18 dose administrations were obtained based on calculation of Area Under Curve for the locally estimated scatterplot smoothing (Loess) profile of lactoferrin and mannitol concentrations assuming 6 mL volume of distribution. The average concentration of lactoferrin was 33 mg/mL and the average concentrations of mannitol was 20 mg/mL. Average concentrations of both substances correspond to 0.1 fraction or 10% of the administered dose, 300 mg lactoferrin and 195 mg mannitol per Z2 tablet respectively. The 0.1 factor was used to estimate the expected average elemental Mn concentration based on the initial dose per tablet.

Structure (SMILES): [Mn+2] [Mn, manganese]
predicted Cmax, fold below the concentration of Mn used in MRS media ([1]; 50 μg dose of Mn): ~2 fold | predicted Cmax, fold above the amount of Mn that could be bound by calprotectin in BV ([1]; 50 μg dose of Mn, 95% CI of median 70 M based on 1:1 Mn/CP): ~2 fold

Structure (SMILES): [Zn] [Zn, zinc]
predicted Cmax, fold below the concentration of Zn used in MRS media ([1]; 250 μg dose of Zn): ~5 fold | predicted Cmax, fold above the amount of Zn that could be bound by calprotectin in BV ([1]; 250 μg dose of Zn, 95% CI of median based on 2:1 Zn/CP): ~4 fold

average concentration as fraction of the administered dose [2]: 10%
Structure (SMILES): OC[C@@H](O)[C@@H](O)[C@H](O)[C@H](O)CO [mannitol, reference compound]
